# Data reported in patent US20060069123A1, “Substituted dipiperidine CCR2 antagonists” (priority 2004, published 2006).
# Where two headings read alike, the source gives them in different places.
# Legend:
# THP-1 cells = assay: MCP-1 Induced Chemotaxis in THP-1 Cells; type: cell-based; settings: Homo sapiens, THP-1 cells, MCP-1 0.01 μg/mL, 3 hours, read-out: Inhibition of MCP-1 Induced Chemotaxis IC50
# Method: MCP-1 Induced Chemotaxis in THP-1 Cells
# MCP-1 induced chemotaxis was run in a 24-well chemotaxis chamber. MCP-1 (0.01 μg/mL) was added to the lower chamber and 100 μL of THP-1 cells (1×10^7 cell/mL) was added to the top chamber. Varying concentrations of test compound were added to the top and bottom chambers. Cells were allowed to chemotax for 3 hours at 37° C. and 5% CO2. An aliquot of the cells that had migrated to the bottom chamber was taken and counted then compared to vehicle.
# CCR2 = biological target: T1, CCR2 (Homo sapiens, UniProt P41597)
# T1 sequence (P41597 1-360 isoform P41597-2): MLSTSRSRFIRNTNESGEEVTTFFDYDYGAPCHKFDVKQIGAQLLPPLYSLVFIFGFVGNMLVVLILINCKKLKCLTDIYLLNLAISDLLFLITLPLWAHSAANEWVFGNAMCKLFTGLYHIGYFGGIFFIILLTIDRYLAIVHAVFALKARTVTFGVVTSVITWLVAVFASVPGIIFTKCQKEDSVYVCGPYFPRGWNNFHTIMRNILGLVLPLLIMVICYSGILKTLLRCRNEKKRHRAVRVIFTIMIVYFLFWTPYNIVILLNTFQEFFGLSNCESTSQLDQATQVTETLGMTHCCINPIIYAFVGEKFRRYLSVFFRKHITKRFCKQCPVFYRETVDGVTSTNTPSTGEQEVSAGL
IC50 (THP-1 cells) [nM],IC50 (CCR2) [nM],Structure (SMILES),"IC50 (THP-1 cells; THP-1, 3 h) [nM]"
1810,1830,"COc1ccc(C2CCN(C(C(=O)O)C3CCN(C(=O)/C=C/c4cc(F)cc(F)c4)CC3)CC2)cc1 (centres unmarked) [Cpd 2, {1-[(2E)-3-(3,5-difluoro-phenyl)-acryloyl]-piperidin-4-yl}-[4-(4-methoxy-phenyl)-piperidin-1-yl]-acetic acid]",–
20,–,"O=C(O)C(C1CCN(C(=O)/C=C/c2cc(F)cc(F)c2)CC1)N1CCC(c2c[nH]c3ccc(O)cc23)CC1 (centres unmarked) [Cpd 16, {1-[(2E)-3-(3,5-difluoro-phenyl)-acryloyl]-piperidin-4-yl}-[4-(5-hydroxy-1H-indol-3-yl)-piperidin-1-yl]-acetic acid]",–
20,160,"CC(=O)Nc1ccc2[nH]cc(C3CCN(C(C(=O)O)C4CCN(C(=O)/C=C/c5cc(F)c(F)c(F)c5)CC4)CC3)c2c1 (centres unmarked) [Cpd 17, [4-(5-acetylamino-1H-indol-3-yl)-piperidin-1-yl]-{1-[(2E)-3-(3,4,5-trifluoro-phenyl)-acryloyl]-piperidin-4-yl}-acetic acid]",–
4,–,"O=C(O)C(C1CCN(C(=O)/C=C/c2ccc(Cl)c(Cl)c2)CC1)N1CCC(c2c[nH]c3ccc(F)cc23)CC1 (centres unmarked) [Cpd 19, {1-[(2E)-3-(3,4-dichloro-phenyl)-acryloyl]-piperidin-4-yl}-[4-(5-fluoro-1H-indol-3-yl)-piperidin-1-yl]-acetic acid]",–
4,–,"O=C(O)C(C1CCN(C(=O)/C=C/c2ccc(F)c(F)c2)CC1)N1CCC(c2c[nH]c3ccccc23)CC1 (centres unmarked) [Cpd 22, {1-[(2E)-3-(3,4-difluoro-phenyl)-acryloyl]-piperidin-4-yl}-[4-(1H-indol-3-yl)-piperidin-1-yl]-acetic acid]",–
0.7,10,"O=C(O)C(C1CCN(C(=O)/C=C/c2cc(F)cc(F)c2)CC1)N1CCC(c2c[nH]c3cc(F)ccc23)CC1 (centres unmarked) [Cpd 24, {1-[(2E)-3-(3,5-difluoro-phenyl)-acryloyl]-piperidin-4-yl}-[4-(6-fluoro-1H-indol-3-yl)-piperidin-1-yl]-acetic acid]",–
10,–,"O=C(O)C(C1CCN(C(=O)/C=C/c2cc(F)cc(F)c2)CC1)N1CCC(c2c[nH]c3cc(Cl)ccc23)CC1 (centres unmarked) [Cpd 25, [4-(6-chloro-1H-indol-3-yl)-piperidin-1-yl]-{1-[(2E)-3-(3,5-difluoro-phenyl)-acryloyl]-piperidin-4-yl}-acetic acid]",–
30,–,"COc1ccc2[nH]cc(C3CCN(C(C(=O)O)C4CCN(C(=O)/C=C/c5cc(F)cc(F)c5)CC4)CC3)c2c1 (centres unmarked) [Cpd 26, {1-[(2E)-3-(3,5-difluoro-phenyl)-acryloyl]-piperidin-4-yl}-[4-(5-methoxy-1H-indol-3-yl)-piperidin-1-yl]-acetic acid]",–
430,100,"O=C(O)C(C1CCN(C(=O)Nc2cc(F)cc(F)c2)CC1)N1CCC(c2c[nH]c3ccccc23)CC1 (centres unmarked) [Cpd 28, [1-(3,5-difluoro-phenylcarbamoyl)-piperidin-4-yl]-[4-(1H-indol-3-yl)-piperidin-1-yl]-acetic acid]",–
0.4,24,"CS(=O)(=O)Nc1ccc2[nH]cc(C3CCN(C(C(=O)O)C4CCN(C(=O)/C=C/c5cc(F)cc(F)c5)CC4)CC3)c2c1 (centres unmarked) [Cpd 29, {1-[(2E)-3-(3,5-difluoro-phenyl)-acryloyl]-piperidin-4-yl}-[4-(5-methanesulfonylamino-1H-indol-3-yl)-piperidin-1-yl]-acetic acid]",–
6,10,"O=C(O)C(C1CCN(C(=O)/C=C/c2ccc(Cl)cc2)CC1)N1CCC(c2c[nH]c3ccccc23)CC1 (centres unmarked) [Cpd 34, {1-[(2E)-3-(4-chloro-phenyl)-acryloyl]-piperidin-4-yl}-[4-(1H-indol-3-yl)-piperidin-1-yl]-acetic acid]",–
30,8,"O=C(O)C(C1CCN(C(=O)/C=C/c2cccc(C(F)(F)F)c2)CC1)N1CCC(c2c[nH]c3ccccc23)CC1 (centres unmarked) [Cpd 35, [4-(1H-indol-3-yl)-piperidin-1-yl]-{1-[(2E)-3-(3-trifluoromethyl-phenyl)-acryloyl]-piperidin-4-yl}-acetic acid]",–
0.4,8,"O=C(O)C(C1CCN(C(=O)/C=C/c2ccc(F)c(Br)c2)CC1)N1CCC(c2c[nH]c3ccccc23)CC1 (centres unmarked) [Cpd 36, {1-[(2E)-3-(3-bromo-4-fluoro-phenyl)-acryloyl]-piperidin-4-yl}-[4-(1H-indol-3-yl)-piperidin-1-yl]-acetic acid]",–
4,20,"COc1ccc2c(C3CCN(C(C(=O)O)C4CCN(C(=O)/C=C/c5cc(F)cc(F)c5)CC4)CC3)c[nH]c2c1 (centres unmarked) [Cpd 38, {1-[(2E)-3-(3,5-difluoro-phenyl)-acryloyl]-piperidin-4-yl}-[4-(6-methoxy-1H-indol-3-yl)-piperidin-1-yl]-acetic acid]",–
1.9,2,"O=C(O)C(C1CCN(C(=O)/C=C/c2ccc(Cl)c(Cl)c2)CC1)N1CCC(c2c[nH]c3cc(F)ccc23)CC1 (centres unmarked) [Cpd 39, {1-[(2E)-3-(3,4-dichloro-phenyl)-acryloyl]-piperidin-4-yl}-[4-(6-fluoro-1H-indol-3-yl)-piperidin-1-yl]-acetic acid]",–
30,–,"O=C(O)C(C1CCN(C(=O)Nc2ccc(F)c(F)c2)CC1)N1CCC(c2c[nH]c3ccccc23)CC1 (centres unmarked) [Cpd 40, [1-(3,4-difluoro-phenylcarbamoyl)-piperidin-4-yl]-[4-(1H-indol-3-yl)-piperidin-1-yl]-acetic acid]",–
40,14,"COc1cccc2[nH]cc(C3CCN(C(C(=O)O)C4CCN(C(=O)/C=C/c5cc(F)cc(F)c5)CC4)CC3)c12 (centres unmarked) [Cpd 41, {1-[(2E)-3-(3,5-difluoro-phenyl)-acryloyl]-piperidin-4-yl}-[4-(4-methoxy-1H-indol-3-yl)-piperidin-1-yl]-acetic acid]",–
0.8,–,"COc1cccc2c(C3CCN(C(C(=O)O)C4CCN(C(=O)/C=C/c5cc(F)cc(F)c5)CC4)CC3)c[nH]c12 (centres unmarked) [Cpd 42, {1-[(2E)-3-(3,5-difluoro-phenyl)-acryloyl]-piperidin-4-yl}-[4-(7-methoxy-1H-indol-3-yl)-piperidin-1-yl]-acetic acid]",–
0.2,1,"O=C(O)C(C1CCN(C(=O)/C=C/c2ccc(Cl)c(Cl)c2)CC1)N1CCC(c2c[nH]c3cc(Cl)ccc23)CC1 (centres unmarked) [Cpd 46, [4-(6-chloro-1H-indol-3-yl)-piperidin-1-yl]-{1-[(2E)-3-(3,4-dichloro-phenyl)-acryloyl]-piperidin-4-yl}-acetic acid]",–
70,–,"O=C(O)C(C1CCN(C(=O)/C=C/c2ccc(Br)cc2)CC1)N1CCC(c2c[nH]c3ccccc23)CC1 (centres unmarked) [Cpd 60, {1-[(2E)-3-(4-bromo-phenyl)-acryloyl]-piperidin-4-yl}-[4-(1H-indol-3-yl)-piperidin-1-yl]-acetic acid]",–
180,–,"O=C(O)C(C1CCN(C(=O)/C=C/c2cccc(F)c2)CC1)N1CCC(c2c[nH]c3ccccc23)CC1 (centres unmarked) [Cpd 62, {1-[(2E)-3-(3-fluoro-phenyl)-acryloyl]-piperidin-4-yl}-[4-(1H-indol-3-yl)-piperidin-1-yl]-acetic acid]",–
30,–,"COc1cccc(/C=C/C(=O)N2CCC(C(C(=O)O)N3CCC(c4c[nH]c5ccccc45)CC3)CC2)c1 (centres unmarked) [Cpd 72, [4-(1H-indol-3-yl)-piperidin-1-yl]-{1-[(2E)-3-(3-methoxy-phenyl)-acryloyl]-piperidin-4-yl}-acetic acid]",–
–,–,CS(=O)(=O)Nc1ccc2c(C3CCN(C(C(=O)O)C4CCN(C(=O)/C=C/c5cc(F)c(F)c(F)c5)CC4)CC3)c[nH]c2c1 (centres unmarked) [Cpd 82],210
